“Also recorded” adds a separate entry of the source.
Experiments:
Type in all cases: in vivo
[1] = tested on: Male C57BL6 mice; test: Aβ40 administration study: plasma Aβ40 and echocardiography; conditions: 1 μg/day i.p.
Procedure: Aβ40 administration study: Lyophilised recombinant Aβ40 (Millipore) and scrambled control peptide (ScrAβ40; Millipore) were resuspended in 1% NH4OH and aliquoted at 200 ng/ml in H2O and stored at −80° C. for no longer than 4 weeks. Male C57BL6 mice were obtained from the Animal Resource Centre (Perth, Wash.) at 4 weeks of age and housed with 4 mice per cage on a 12 hr light/dark cycle at a temperature of 22° C. and a constant humidity with a normal rodent diet. At 12 weeks of age, mice were grouped according to body mass and composition, determined by EchoMRI. Mice were then administered 1 μg of recombinant Aβ40 or ScrAβ40 (n=12/group per cohort) by i.p. injection once/day for 5 wks. After 4 weeks of peptide administration, cardiac function was assessed by echocardiography as follows. Mice were anaesthetised with inhalation of 1.5% isoflurane anaesthesia and echocardiography was performed using the Phillips HD15 diagnostic ultrasound system with a 15 MHz linear-array transducer by an experienced veterinarian. The velocity of blood flow through the mitral valve was analysed using Doppler mode imaging. […] Doppler imaging was also utilised to measure the velocity of blood flow through the aortic valve. The measurements were then used to calculate the ejection time, peak aortic flow and heart rate. M-mode imaging of the left ventricle was used to measure the thickness of the inter-ventricular septum (IVS), left ventricular internal diameter (LVID) and left ventricular posterior wall (LVPW) in both diastole (d) and end-systole (s) as well as systolic measures such as ejection fraction and fractional shortening. An estimation of LV mass was calculated from the m-mode imaging by using the formula (1.05[LVIDd+LVPWd+IVSd]^3−[LVIDd]^3) by Troy et al. (1972). Mice were humanely killed by cervical dislocation 1 week later. Blood was obtained immediately following by cardiac puncture and the heart, and other tissues were immediately removed. Hearts were washed in ice cold PBS and weighed prior to being snap frozen in liquid nitrogen. Plasma Aβ40 was measured using a high sensitivity ELISA kit (Wako Diagnostics) and plasma that was diluted 1:10 with assay buffer.

[2] = tested on: obese mice; test: PF06648671-High Fat Diet (HFD) treatment study: echocardiography
Procedure: (§1) PF06648671-High Fat Diet (HFD) treatment study: At 12 weeks of age, mice (n=30) were placed on a HFD with 43% of calories from fat (23.5% by weight; SF04-001 High Fat Rodent Diet Based on D12451, Specialty Feeds, Glen Forrest, Wash.). After 13 weeks of the diet period, echocardiography was performed on all mice to obtain pre-drug treatment measures of cardiac function. Mice were allocated to treatment groups so that measures of cardiac function and morphology were matched as best as possible. PF06648671 (Medkoo Biosciences) was resuspended in 100% DMSO before being diluted in a hydroxypropyl cellulose solution to give a final solution containing lmg/mL PF06648671 in 10% hydroxypropyl cellulose and 5% DMSO. A vehicle solution containing 10% hydroxypropyl cellulose and 5% DMSO was also made. Aliquots of both drug and vehicle were stored at −80° C. until required. The HFD/PF06648671 group was administered 4 mg/kg of PF06648671 per day by oral gavage, while the HFD/control group received an equivalent volume of vehicle. Echocardiography was then performed following 4 weeks of the treatment period to obtain post-drug treatment measures of cardiac function. Following 5 weeks of the drug administration, mice were humanely killed via cervical dislocation and blood was immediately obtained via cardiac puncture and stored in a heparinised tube. The heart, epididymal fat pad, mesenteric fat pad, liver, quadricep, hind limb and brain were then immediately dissected. The heart was blotted prior to being weighed and all tissues were snap frozen in liquid nitrogen and stored at −80° C. Plasma Aβ species were measured using high sensitivity ELISA kits (Wako Diagnostics) and plasma that was diluted 1:10 with assay buffer.

[3] = tested on: plasma Aβ species; test: PF06648671-High Fat Diet (HFD) treatment study: plasma Aβ species by ELISA; conditions: obese mice
Procedure: as §1, with “Following 5 weeks of the drug administration, mice were humanely killed via cervical dislocation and blood was immediately obtained via cardiac puncture and stored in a heparinised tube. The heart, epididymal fat pad, mesenteric fat pad, liver, quadricep, hind limb and brain were then immediately dissected. The heart was blotted prior to being weighed and all tissues were snap frozen in liquid nitrogen and stored at −80° C.” left out

[4] = tested on: Male C57BL6 mice; test: Aβ42 administration study: cardiac function by echocardiography
Procedure: After 4 weeks of peptide administration, cardiac function was assessed by echocardiography as follows. Mice were anaesthetised with inhalation of 1.5% isoflurane anaesthesia and echocardiography was performed using the Phillips HD15 diagnostic ultrasound system with a 15 MHz linear-array transducer by an experienced veterinarian. The velocity of blood flow through the mitral valve was analysed using Doppler mode imaging. […] Doppler imaging was also utilised to measure the velocity of blood flow through the aortic valve. The measurements were then used to calculate the ejection time, peak aortic flow and heart rate. M-mode imaging of the left ventricle was used to measure the thickness of the inter-ventricular septum (IVS), left ventricular internal diameter (LVID) and left ventricular posterior wall (LVPW) in both diastole (d) and end-systole (s) as well as systolic measures such as ejection fraction and fractional shortening. An estimation of LV mass was calculated from the m-mode imaging by using the formula (1.05 [LVIDd+LVPWd+IVSd]^3−[LVIDd]^3) by Troy et al. (1972). Mice were humanely killed by cervical dislocation 1 week later. Blood was obtained immediately following by cardiac puncture and the heart, and other tissues were immediately removed. Hearts were washed in ice cold PBS and weighed prior to being snap frozen in liquid nitrogen.
Hearts were also collected for morphological analysis (FIG. 2).

[5] = tested on: Male C57BL6 mice; test: Aβ42 administration study: plasma Aβ42, body measures, GTT with glucose tracers, cardiac TAG, gene expression
Procedure: Male C57BL6 mice were obtained from the Animal Resource Centre (Perth, Wash.) at 4 weeks of age and housed with 4 mice per cage on a 12 hr light/dark cycle at a temperature of 22° C. and a constant humidity with a normal rodent diet. At 12 weeks of age, mice were grouped according to body mass and composition, determined by EchoMRI. […] An i.p. glucose tolerance test (GTT) was performed on the final treatment day following an overnight fast. Mice were administered 2 g/kg lean mass of glucose including radioactive glucose tracers, prepared as follows. 100 μl of 1 μCi/μl glucose analogue, [^3H]-2-deoxyglucose (2-DOG), and 500 μl of 200 μCi/mL U-^14C glucose were evaporated to dryness before redissolving the radioactive tracers in 1 mL of 50% glucose. This produced a 50% glucose solution containing 100 μCi/mL [^3H]-2-DOG and 100 μCi/mL U-^14C glucose. The tail tip of each mouse was cut off and the blood glucose concentration of a blood sample was measured using an AccuCheck II glucometer (Roche). The GTT was initiated via intraperitoneal injection of the radiolabelled glucose solution (2 g/kg body weight, 10 uCi/animal) into the overnight-fasted mice. Further blood samples were taken at 15, 30, 45, 60 and 90 minutes after the injection for the measurement of blood glucose. Blood samples (30 μl) were also taken from the tail tip at each time point and diluted in 100 μl of saline. These samples were then centrifuged and the supernatant collected. 50 μl of the supernatant was diluted in 500 μl of distilled water and then suspended in 4 mL of Ultima Gold XR scintillation fluid (Packard Bioscience). Blood radioactivity was determined at each time point by performing liquid scintillation counting on each solution using the Beckman scintillation counter (LS6000 SC). At the conclusion of the GTT, mice were killed via cervical dislocation. Blood was obtained immediately following by cardiac puncture and the heart, and other tissues were immediately removed. Hearts were washed in ice cold PBS and weighed prior to being snap frozen in liquid nitrogen. The heart (30 mg), epididymal fat pad (30 mg and quadriceps skeletal muscle (30 mg) were homogenised in 1.5 ml of distilled water. The homogenate was centrifuged at 3000 rpm for 10 min at 4° C. 400 μl of the supernatant was diluted into 1.6 mL of distilled water and then suspended in 14 mL of Ultima Gold XR scintillation fluid (Packard Bioscience). The radioactivity of each sample (from both [^3H]-2-DOG6P and [^3H]-2-DOG) was determined by liquid scintillation counting using the Beckman scintillation counter (LS6000 SC). The ^3H radioactivity was used to measure glucose uptake into each tissue.
To determine the incorporation of U-^14C glucose into triglyceride and the total triglyceride content in the heart, an extraction of triglyceride was carried out using a chloroform/methanol mixture. Samples of heart (30 mg) were hand-homogenised in 2 mL of chloroform/methanol (2:1) and the homogeniser rinsed in a further 2 mL of chloroform/methanol (2:1), and the washings being added to the original extract in 10 mL tubes. The tubes were tightly capped and mixed on a rotator overnight to maximise extraction of the triglycerides. 2 ml of 0.6% saline was then added, to facilitate the separation of the organic and aqueous phases, after which the tubes were mixed thoroughly and then centrifuged at 2000 rpm for 10 minutes. The lower chloroform phase (containing triglycerides) was collected and evaporated to dryness under nitrogen at 45° C. The dried extract was then re-dissolved in 250 μl of 100% ethanol, to redissolve the lipid and enable aliquots to dispensed for assay. The amount of U-^14C glucose clearance into the lipid fraction was measured by suspending 100 μl of the triglyceride solution in 5 mL of Ultima Gold XR scintillation fluid (Packard Bioscience), followed by scintillation counting using the Beckman scintillation counter (LS6000 SC).

[6] = GTT after five weeks of peptide, vs ScrAβ42

Compound: Aβ40: Lyophilised recombinant Aβ40 (Millipore)
- E:A ratio ([1]; 5 weeks (FIG. 6B)): did not have any effect
- DT ([1]; 5 weeks (FIG. 6C)): did not have any effect
- ejection fraction ([1]; 5 weeks (FIG. 6E)): nor any effect
- IVSd ([1]; 5 weeks (FIG. 6F)): no effect
- LVIDd ([1]; 5 weeks (FIG. 6G)): no effect
- LV mass ([1]; 5 weeks (FIG. 6H)): no effect
- plasma Aβ40 ([1]; 5 weeks, vs ScrAβ40 (FIG. 6A)): significantly increased

Compound: Cc1cn(-c2ccc3n(c2=O)CCN([C@@H](C)[C@@H]2CC[C@H](c4cc(F)c(Cl)cc4C(F)(F)F)O2)C3=O)cn1 [PF06648671]
- relative change in the E:A ratio, Vehicle vs PF06648671 groups ([2]; obese mice (FIG. 7D)): significantly different
- E:A ratio Pre-treatment to Post-treatment ([2]; obese mice, 4 mg/kg per day oral gavage, 4 weeks (FIG. 7C)): did not change; also recorded: prevented deterioration
- E:A ratio relative to Pre-treatment values ([2]; obese mice, 4 mg/kg per day oral gavage, 4 weeks (FIG. 7D)): 114%
- plasma Aβ40 ([3]; 4 mg/kg per day oral gavage (FIG. 7A)): decreased
- plasma Aβ42 ([3]; 4 mg/kg per day oral gavage (FIG. 7B), 4 mg/kg/day): decreased; also recorded: reduced

Compound: Aβ42: Lyophilised recombinant Aβ42 (Millipore)
- internal dimensions of the left ventricle (LVIDd) ([4]; Aβ42 vs ScrAβ42 (FIG. 2B)): no effect
- deceleration time ([4]; Aβ42 vs ScrAβ42 (FIG. 2D)): increased
- E normalised by isovolumetric relaxation time (IVRT) ([4]; Aβ42 vs ScrAβ42 (FIG. 2E)): no significant difference
- fractional shortening ([4]; Aβ42 vs ScrAβ42 (FIG. 2F)): reduced
- ejection fraction ([4]; Aβ42 vs ScrAβ42 (FIG. 2G)): reduced
- gross heart weight ([4]; Aβ42 vs ScrAβ42, five weeks (FIG. 2A)): no effect
- increase in plasma Aβ42 ([5]; 1 μg/day i.p., five weeks, compared with ScrAβ42 (FIG. 1A)): approximately 3 fold
- plasma insulin throughout the GTT [5, 6]: no difference
- whole body glucose tolerance [5, 6]: no difference
- glucose incorporation into TAG (14C-glucose labelling) ([5]; heart, after five weeks of peptide (FIG. 1C)): greater
- total TAG ([5]; heart, after five weeks of peptide (FIG. 1D)): increased
- cardiac gene expression (inflammation, endoplasmic reticulum stress) ([5]; heart, after five weeks of peptide (FIG. 1E)): gene expression changes indicative of cardiac stress responses
